Assay [1] has as its target T1, D(1A) dopamine receptor (Homo sapiens, UniProt P21728). As to the kind of experiment: Potentiation of dopamine-induced positive allosteric modulation of human D1 receptor expressed in HEK293 cells assessed as cAMP production measured after 60 to 90 mins by HTRF assay relative to control. The class given is functional, cell-based. On the set-up: concentration or dose not given beside the values.

The next assay has as its system Mus musculus. As to the kind of experiment: Increase in basal locomotor activity in transgenic knockout C57BL/6 mouse expressing human D1 receptor mouse at 10 ml/kg, po measured every 10 mins for 60 mins by automated system analysis. The class given is functional, organism-based.
Assay [2] concerns the target T1, D(1A) dopamine receptor. As to the kind of experiment: Positive allosteric modulation of human D1 receptor expressed in HEK293 assessed as cAMP production incubated for 60 mins by HTRF assay. The class given is functional, cell-based. On the technique in general: Changes in cAMP serve as a functional read-out for many G protein-coupled receptors.

Consider 10 compounds from ChEMBL document CHEMBL4334535, “Novel Pyrazolyl-dihydroisoquinolines as Positive Allosteric Modulator of the Dopamine D1 Receptor” (ACS Med Chem Lett, 2020).

The structures appear in SMILES notation. The source made the active and inactive calls. The calls are words filed in the database; no cut-off is given here.

T1 sequence (P21728 whole entry): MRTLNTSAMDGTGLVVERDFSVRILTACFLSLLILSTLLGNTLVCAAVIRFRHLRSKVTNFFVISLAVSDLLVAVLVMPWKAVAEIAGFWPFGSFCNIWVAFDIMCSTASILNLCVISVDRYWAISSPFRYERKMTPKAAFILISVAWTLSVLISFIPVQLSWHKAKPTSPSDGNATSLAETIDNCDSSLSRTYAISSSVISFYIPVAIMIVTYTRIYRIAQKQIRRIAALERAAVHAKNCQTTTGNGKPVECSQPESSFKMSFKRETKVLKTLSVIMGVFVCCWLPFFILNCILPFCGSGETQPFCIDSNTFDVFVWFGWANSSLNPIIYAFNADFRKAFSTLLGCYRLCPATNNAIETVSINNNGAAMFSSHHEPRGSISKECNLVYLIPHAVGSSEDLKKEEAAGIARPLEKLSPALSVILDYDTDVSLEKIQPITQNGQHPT

As for `C[C@H]1c2cccc(-c3cnn(C)c3)c2C[C@H](CO)N1C(=O)Cc1ccccc1Cl`, the Activity at D(1A) dopamine receptor [1] came to 80.4%.

In the case of `C[C@H]1c2cccc(-c3cn[nH]c3)c2C[C@H](CO)N1C(=O)Cc1c(Cl)cccc1Cl`, the result with Mus musculus was Active. In addition, the Activity at D(1A) dopamine receptor [1] stood at 75.9%.

As for `C[C@H]1c2cccc(-c3cnn(C)c3)c2C[C@H](CO)N1C(=O)Cc1c(Cl)cccc1Cl`, in the assay on Mus musculus, the outcome was Active. In addition, the Activity on D(1A) dopamine receptor [1] was 91.4%.

Consider `CCn1cc(-c2cccc3c2C[C@H](CO)N(C(=O)Cc2c(Cl)cccc2Cl)[C@H]3C)cn1`, for which the Activity at D(1A) dopamine receptor [1] is 91.2%.

With `C[C@H]1c2cccc(-c3cn[nH]c3)c2C[C@H](CO)N1C(=O)Cc1ccc(F)cc1Cl`, the Activity at D(1A) dopamine receptor [1] was determined as 77.1%.

Turning to `C[C@H]1c2cccc(-c3cnn(C4CC4)c3)c2C[C@H](CO)N1C(=O)Cc1c(Cl)cccc1Cl`, on D(1A) dopamine receptor [1], the Activity was found to be 88.1%.

In the case of `C[C@H]1c2cccc(-c3cn[nH]c3)c2C[C@H](CO)N1C(=O)Cc1c(F)cccc1Cl`, the Activity on D(1A) dopamine receptor [1] came to 81.5%.

As for `C[C@H]1c2cccc(-c3cn[nH]c3)c2C[C@H](CO)N1C(=O)Cc1c(F)cccc1F`, at D(1A) dopamine receptor [1], the Activity is 78.1%.

As to `C[C@H]1c2cccc(-c3cn[nH]c3)c2C[C@H](CO)N1C(=O)Cc1cc(F)ccc1Cl`, on D(1A) dopamine receptor [1], the Activity amounted to 79.8%.

As to `C[C@H]1c2cccc(-c3cnn(CCO)c3)c2C[C@H](CO)N1C(=O)Cc1c(Cl)cccc1Cl`, on D(1A) dopamine receptor [1], the Activity came out at 79.1%. In addition, the EC50 (as a rule, the concentration giving half of the maximal effect) at D(1A) dopamine receptor [2] was found to be 0.0183 µM.
